In patent publication US20070078262A1, “Thiomorpholino steroid compounds, the use thereof for the preparation of meiosis-regulating medicaments and method for the preparation thereof” (SCHERING AKTIENGESELLSCHAFT, priority 2003, published 2007):
Several values for one entry are separate records, joined by “and”; a condition that tells them apart may be missing. Equal values may be shown once.

Columns and labels:
[1] = test system: Cumulus Enclosed Oocytes (CEOs); test: Cumulus enclosed oocyte assay (meiosis activation in Hx-medium); assay type: cell-based, mice (C57BL/6J×DBA/2J F1); details: for Meiosis Activation [%]: in the presence of Hx in CEOs
Excerpt: Activation of MI arrested oocytes can be assessed by the disappearance of the germinal vesicle (GV). The disappearance of the GV, called germinal vesicle breakdown (GVB) is followed by the extrusion of the first polar body (PB) (C. Grøndahl, J. L. Ottesen, M. Lessi, P. Faarup, A. Murray, F C Grønvald, C. Hegele-Hartung, I. Ahnfelt-Rønne, “Meiosis-activating sterol promotes resumption of meiosis in mouse oocytes cultured in vitro in contrast to related oxysterols”, Biol. Reprod., 58, 1297-1302 (1998); C. Hegele-Hartung, J. Kuhnke, M. Lessi, C. Grøndahl, J. Ottesen, H. M. Beier, S. Eisner, U. Eichenlaub-Ritter, “Nuclear and cytoplasmic maturation of mouse oocytes after treatment with synthetic meiosis-activating sterol in vitro”, Biol. Reprod., 61, 1362-1372 (1999)).
Cumulus Enclosed Oocytes (CEOs) were obtained from immature female mice (C57BL/6J×DBA/2J F1) weighing 13-16 grams, that were kept under controlled temperature (20-22° C.), light (lights on 06:00-18:00) and relative humidity (50-70%). The mice received an intra-peritoneal injection of 0.2 ml gonadotropins containing 20 IU FSH. 48 hours later the animals were killed by cervical dislocation. The ovaries were dissected out and the oocytes were isolated in Hx-medium (see below) under a stereomicroscope by manual rupture of the follicles using a pair of 27-gauge needles. Cumulus enclosed oocytes displaying an intact germinal vesicle were placed in α-minimum essential medium (α-MEM without ribonucleosides supplemented with 8 mg/ml Human Serum Albumin (HSA), 0.23 mM pyruvate, 2 mM glutamine, 100 IU/ml penicillin and 100 μg/ml streptomycin). To maintain the oocytes in the germinal vesicle stage this medium was supplemented with 3 mM hypoxanthine, designated as Hx-medium.
The CEOs (35-45 CEOs in 0.4 ml Hx-medium) were cultured in a humidified atmosphere of 5% CO2 in air for 24 hours at 37° C. One control well (identical medium with no addition of test compound) was always cultured simultaneously with test wells.
By the end of the culture period the number of CEOs with germical vesicle (GV), germinal vesicle breakdown (GVB) and polar bodies (PB), respectively, were counted. The % GVB, defined as the percentage of CEOs undergoing GVB per total number of CEOs in that well, was calculated as: % GVB=(number of GVB+number of PB/total number of CEOs)×100
The % PB was defined as the percentage of CEOs displaying one extruded polar body per total number of CEOs in that well.
For each compound two experiments were performed and the results compared to Hx-medium as a control and FF-MAS at a concentration of 10 μM.

mouse oocytes = test: In vitro fertilization (IVF) after in vitro maturation of oocytes; assay type: cell-based, mice (C57BL/6J×DBA/2J F1); details: in vitro maturation without hypoxanthine, then IVF; n=18
Procedure: Changes in the subsequent IVF are therefore probably due to effects of the test compounds on cytoplasmic maturation.
Immature female mice (C57BL/6J×DBA/2J F1) in the age of 21-24 days were used as oocyte donors. Animals were given an i.p. injection of 10 IU pregnant mare serum gonadotropin (PMSG) to induce follicular growth. Animals were killed by cervical dislocation 48 hours later and the ovaries were dissected out. As sperm donors eight week old male mice (C57BL/6J×DBA/2J F1) were used.
Oocytes were isolated from the ovaries by manual rupture of the follicles using a pair of 27-gauge needles. Spherical naked oocytes (NkO) and CEOs displaying an intact GV were selected and placed in α-minimum essential medium (α-MEM without ribonucleosides, Gibco BRL, Gaithersburg; Cat. No. 22561) supplemented with 8 mg/ml human serum albumin (HSA), 0.23 mM pyruvate, 2 mM glutamine, 100 IU/ml penicillin and 100 μg/ml streptomycin.
The oocytes were rinsed three times in culture medium without oil overlay in 4-well multidishes containing 0.4 ml of the respective oocyte culture medium.
The oocyte culture medium was supplemented with 6.4% Fetal Bovine Serum (FBS). Solutions of novel compound IA and of the two compounds in comparison as mentioned were prepared from a stock solution containing 1 mg/ml of compound dissolved in absolute ethanol. The control group was cultured with a corresponding amount of ethanol.
After a culture time of 18-19 hours oocytes were further processed for in vitro fertilization. […] Oocytes were briefly washed without any test compound and subsequently transferred to the insemination dishes prepared in advance, which contained approximately 600.000 capacitated sperm cells per 500 μl IVF medium (obtained from the epididymides of male mice). The dishes were then incubated under defined gas conditions (5% CO2 in air) at 37° C. in a modified α-MEM IVF medium supplemented with 8 mg/ml HSA, 0.23 mM pyruvate, 100 IU penicillin/ml and 100 μg streptomycin/ml as described above for oocyte maturation.
Examination of the oocytes was carried out 22-24 hours after insemination in order to check fertilization and to record the number of pronucleus (PN) and 2-cell stage embryos. The fertilization rate was determined as the number of oocytes that had reached the PN or 2-cell embryo stage, relative to the total number inseminated.

[2] = test system: in vitro fertilized ova (2-cell embryos); test: Retransfer study / fertility trial (in vitro fertilized 2-cell embryos transferred into foster mothers); assay type: in vivo, mice; details: for No. of Implantation Spots: Odds / No. of Viable Fetuses: Odds: successes divided by failures; for No. of Implantation Spots: Failures: transferred ova minus implantation spots; for No. of Viable Fetuses: Failures: transferred ova minus viable fetuses; for shows significant improvement of odds versus vehicle control, number of implantation spots: 95% confidence interval of odds ratio, all doses tested; for Odds Ratio for comparison to FF-MAS, No. of Implantation Spots / Odds Ratio for comparison to FF-MAS, No. of Viable Fetuses: versus FF-MAS 10 μM
Procedure: In vitro fertilization was performed as described above for the IVF experiment.
One day before the retransfer female recipient mice (foster mothers) in pro-estrus cycle state were mated with vasectomized males in order to trigger pseudogestation. One day later a vaginal check was performed. Animals with a positive, sperm-free vaginal plug (successful mating) entered the study. This day was designated day 0 of gestation (=day 0 after the sterile copulation, day 0 p.c.). […] 2-cell embryos were transferred into the right tube of the foster mothers on day 0 after the sterile copulation under anesthesia. The contra-lateral tube remained unused (check for pseudogestation). The foster mothers were sacrified on day 19 of gestation. The fetuses were removed and examined. The ovaries and uteri were removed immediately to record the number of implantation sites, viable and dead fetuses and resorptions. Apparently non-pregnant uteri were placed in a 10% aqueous solution of ammonium sulfide for about 10 min to stain possible implantation sites in the endometrium. The viable fetuses were individually weighed and their sex determined by inspection of their gonads.
In a fertility trial 269 mice were randomized into 6 groups and implanted with 7-10 in vitro fertilized ova. The in vitro fertilization took place in the presence of vehicle (group 1) or of a substance (groups 2 to 6).
The fertility raising effect of the substances in comparison to the vehicle control was of main interest. Moreover, an improvement compared to the substance FF-MAS was also investigated.
Variables of primary interest are the number of implantation spots and the number of viable fetuses.
The data for implantation spots as well as for viable fetuses have to be considered to have binary character, i.e. it can be expressed in rates or in a number of successes and failures with respect to the number of transferred ova. Therefore, methods as outlined by D. Collett: “Modelling Binary Data”, 2nd edition, Chapman & Hall/CRC, Boca Raton, constitute appropriate approaches to the data analysis.
The odds ratio of one group as compared to the other is defined as: odds ratio (group 1, group 2)=or1,2=odds (group 1)/odds (group 2)
where the odds of a group can be estimated by the number of successes divided by the number of failures in that group.
To reach statements about the significance of any findings, 95% confidence-intervals for the odds ratios are computed as: [ exp(log(or1,2)[…]1.96·se(log(or1,2))); exp(log(or1,2)+1.96·se(log(or1,2)))]
wherein se(log(or1,2)) is the standard error of the log odds ratio (see D. Collett (2003) for the corresponding formula).
As a basis for the computation of odds ratios, the number of successes (i.e., the number of implantation spots of number of viable fetuses) and failures (i.e., the number of transferred ova minus the number of implantation spots or number of viable fetuses) are computed for all groups.

follicle culture system = test: Follicle culture system (induction of maturation); assay type: cell-based
rat oocytes (CEO and DO) = details: micromolar concentrations; CEO and DO cultured in vitro; cited from earlier work
[3] = Solubility in water (measured by turbimetry)
[4] = 10 μM, Table 1, two experiments per compound, FF-MAS run in parallel

SMILES | Meiosis Activation [%] [1, 4] | Meiosis Activation [%] ([1]; 10 μM, Table 2) | fertilization rates of mouse oocytes compared to vehicle control (FIG. 3) (mouse oocytes) | No. of Implantation Spots: Success ([2]; 10 μM) | No. of Viable Fetuses: Success ([2]; 10 μM) | Odds Ratio for comparison to vehicle control, No. of Implantation Spots ([2]; 10 μM) | Odds Ratio for comparison to vehicle control, No. of Viable Fetuses ([2]; 10 μM) | No. of Implantation Spots: Odds ([2]; 10 μM) | No. of Viable Fetuses: Odds ([2]; 10 μM) | No. of Implantation Spots: Failures ([2]; 10 μM) | No. of Viable Fetuses: Failures ([2]; 10 μM) | shows significant improvement of odds versus vehicle control, number of implantation spots [2] | further results
C[C@H](CN1CCSCC1)[C@H]1CCC2=C3CC[C@H]4C(C)(C)[C@@H](O)CC[C@]4(C)[C@H]3CC[C@@]21C [Compound IB, (20S)-20-[(thiomorpholin-4-yl)methyl]-4,4-dimethyl-5α-pregna-8(14)-en-3β-ol] | 15% | – | – | – | – | – | – | – | – | – | – | – | –
C[C@H](CN1CCSCC1)[C@H]1CCC2=C3CC[C@H]4C[C@@H](O)CC[C@]4(C)[C@H]3CC[C@@]21C [Compound IE, (20S)20-[(thiomorpholin-4-yl)methyl]-5α-pregna-8(14)-en-3β-ol] | 96% and 80% | 60 | – | – | – | – | – | – | – | – | – | – | Meiosis Activation [%] ([1]; 1 μM, Table 2): 44%; Meiosis Activation [%] ([1]; 3 μM, Table 2): 24%; efficiency of meiosis activation among the compounds tested ([1]; CEOs in the presence of Hx): the most efficient compound tested
C[C@H](CN1CCSCC1)[C@H]1CC[C@H]2C3=CC=C4C(C)(C)[C@@H](O)CC[C@]4(C)[C@H]3CC[C@]12C [Compound ID, (20S)-20-[(thiomorpholin-4-yl)methyl]-4,4-dimethyl-pregna-5,7-dien-3β-ol] | 89% and 58% | – | – | – | – | – | – | – | – | – | – | – | –
C[C@H](CN1CCSCC1)[C@H]1CC=C2C3=C(CC[C@@]21C)[C@@]1(C)CC[C@H](O)C[C@@H]1CC3 [Compound IC, (20S)-20-[(thiomorpholin-4-yl)methyl]-5α-pregna-8,14-dien-3β-ol] | 64% and 69% | – | – | – | – | – | – | – | – | – | – | – | –
CC(C)=CCC[C@@H](C)[C@H]1CC=C2C3=C(CC[C@@]21C)[C@@]1(C)CC[C@H](O)C(C)(C)[C@@H]1CC3 [FF-MAS, 4,4-dimethyl-5α-cholesta-8,14,24-trien-3β-ol] | – | 24 | higher fertilization rates | 100 | 45 | 1.19 | 1.49 | 0.30 | 0.12 | 335 | 390 | Neither | implantation rate per transferred 2-cell embryos (FIG. 4) ([2]; FF-MAS 10 μM, compound IA 1 μM and 10 μM): higher numbers; induction of maturation / activation of meiosis in a follicle culture system (follicle culture system): not able to induce maturation; resumption of meiosis in rat oocytes arrested by IBMX (rat oocytes (CEO and DO)): able to induce resumption of meiosis in a dose-dependent manner; solubility [3]: < 0.1 µg/mL
C[C@H](CN1CCCCC1)[C@H]1CC=C2C3=C(CC[C@@]21C)[C@@]1(C)CC[C@H](O)C(C)(C)[C@@H]1CC3 [Compound No. 2, (20S)-20-[(piperidin-1-yl)methyl]-4,4-dimethyl-5α-pregna-8,14-dien-3β-ol] | – | 48 | higher fertilization rates | 90 | 37 | 1.08 | 1.24 | 0.27 | 0.10 | 332 | 385 | Neither | No. of Implantation Spots: Success ([2]; 1 μM): 97; No. of Viable Fetuses: Success ([2]; 1 μM): 32; Odds Ratio for comparison to vehicle control, No. of Implantation Spots ([2]; 1 μM): 1.09; Odds Ratio for comparison to vehicle control, No. of Viable Fetuses ([2]; 1 μM): 0.98; No. of Implantation Spots: Odds ([2]; 1 μM): 0.27; No. of Viable Fetuses: Odds ([2]; 1 μM): 0.08; No. of Implantation Spots: Failures ([2]; 1 μM): 357; No. of Viable Fetuses: Failures ([2]; 1 μM): 422; Odds Ratio for comparison to FF-MAS, No. of Implantation Spots ([2]; 1 μM): 0.91; Odds Ratio for comparison to FF-MAS, No. of Viable Fetuses ([2]; 1 μM): 0.66; Odds Ratio for comparison to FF-MAS, No. of Implantation Spots ([2]; 10 μM): 0.91; Odds Ratio for comparison to FF-MAS, No. of Viable Fetuses ([2]; 10 μM): 0.83
